Measurements: US20220211732A1, “PREBIOTIC COMPOSITIONS” (Evonik Operations GmbH, priority 2019, published 2022)

Experiments:
[1] = system: human intestinal microbiota; assay: SCFA production after omega-3 amino acid salts and controls (Example 2); format: cell-based; details: salts 1.4 mg/ml, FFA 0.96, Lys 0.49, Arg 0.52, Orn 0.5 mg/ml; for Acetate, change compared to control / Propionate, change compared to control / n-Butyrate, change compared to control: triplicates
Protocol: (§1) To determine the effect of a EPA/DHA lysine salt (EPA/DHA-Lys) on adult colonic microbiota, an intestinal screening model was used (I-screen, TNO, the Netherlands). Therefore, the I-screen model was inoculated with standard human adult fecal microbiota material, which consisted of pooled fecal donations from six healthy adult volunteers (Caucasian, European lifestyle and nutrition). The fecal material was mixed and grown in a fed-batch fermenter for 40 hours to create a standardized microbiota as described previously.
(§2) The intestinal microbiota was cultured in vitro in modified standard ileal efflux medium (SIEM), the composition of which was described by Minekus et al.. All components were supplied by Trititium Microbiology (Veldhoven, The Netherlands). The pH of the medium was adjusted to 5.8.
(§3) For the I-screen fermentations, the pre-cultured standardized fecal inoculum was diluted 50 times in modified SIEM. EPA/DHA-Lys was introduced into the I-screen to final concentrations of 1.4 mg/ml and 1.5 mg/ml, respectively; omega-3 ethyl ester and fish oil at 1.4 mg/ml each. Inulin was added as a control at a final concentration of 4 mg/ml. […] All experiments were carried out in triplicates.
(§4) For the analysis of short-chain fatty acids in exposed material from the I-screen, samples were centrifuged (˜4000 g, 5 min), clear supernatant was filter sterilized (0.45 μm) and a mixture of formic acid (20%), methanol and 2-ethyl butyric acid (internal standard, 2 mg/ml in methanol) was added.
The effects of different omega-3 amino acid salts omega-3-lysine (omega-3-lys), omega-3-arginine (omega-3-arg) and omega-3-ornithine (omega-3-orn) and their respective controls (free fatty acids (FFA), amino acids lysine (lys), arginine (arg) and ornithine (orn)) on SCFA production by an intestinal microbiota were analyzed.

human fecal microbiota = assay: I-screen intestinal screening model, SCFA production (Example 1); format: cell-based; details: 24 h incubation, mean of triplicates
Protocol: as §1, with “previously. These standard adult gut microbiota sets were stored at −80° C. in 12% glycerol.” for “previously.”
as §2, §3, §4

[2] = in vivo; cited from earlier work
human fecal microbiota 2 = assay: TIM-2 in vitro colon model, SCFA production, microbiota 2 (Example 6); format: cell-based; details: for Cumulative production of acetate / Cumulative production of butyrate / Cumulative production of propionate: lumen and dialysate, duplicates
From the text: TIM-2 is an abbreviation of TNO's in vitro model-2, an advanced dynamic, computer-controlled in vitro model of the adult human colon. TIM-2 simulates to a high degree the successive dynamic processes in the colon and is predictive for what happens in human individuals. The following in vivo conditions are simulated in this model: body temperature, pH in the lumen, composition and rate of secretion, delivery of a pre-digested substrate from the ‘ileum’ (SIEM), mixing and transport of the intestinal contents, absorption of water and microbial metabolites and presence of a complex, high density, metabolically active, anaerobic fecal microbiota of human origin.
The model was set-up and inoculated with the microbiota on the first day. Following an overnight adaptation period in SIEM, the test-products were fed at final concentrations of 1.4 mg/ml EPA/DHA-Lys or 1 mg/ml L-rhamnose in SIEM during an intervention period of 72 hrs. Cultivation in SIEM without any additional substance served as control condition.
Samples were taken from the lumen and the dialysate every 24 hrs (t0, t24, t48 and t72) to study the metabolic activity of the gut microbiota (SCFA production) and changes in composition of the gut microbiota (16S rRNA gene analysis).
Samples were analyzed for SCFA by ion-chromatography.
A second TIM-2 study was performed, using conditions as described under Example 3 but applying a different human fecal microbiota (termed microbiota 2), to assess whether the observed effects are dependent on the initial microbiota composition.
T1=EPA/DHA-Lys (ω-3); T2=L-rhamnose.

human fecal microbiota 1 = assay: TIM-2 in vitro colon model, SCFA production, microbiota 1 (Example 3); format: cell-based; details: for Cumulative production of acetate / Cumulative production of butyrate / Cumulative production of propionate: lumen and dialysate, duplicates
From the text: To confirm the results for omega-3 amino acid salts, using omega-3 lysine as an example, an additional, independent and more advanced model of fermentation by the human colonic microbiota was applied, the TIM-2 model. Next to omega-3 lysine the prebiotic carbohydrate L-rhamnose was also applied. TIM-2 is an abbreviation of TNO's in vitro model-2, an advanced dynamic, computer-controlled in vitro model of the adult human colon. TIM-2 simulates to a high degree the successive dynamic processes in the colon and is predictive for what happens in human individuals. The following in vivo conditions are simulated in this model: body temperature, pH in the lumen, composition and rate of secretion, delivery of a pre-digested substrate from the ‘ileum’ (SIEM), mixing and transport of the intestinal contents, absorption of water and microbial metabolites and presence of a complex, high density, metabolically active, anaerobic fecal microbiota of human origin. The model was set-up and inoculated with the microbiota on the first day. Following an overnight adaptation period in SIEM, the test-products were fed at final concentrations of 1.4 mg/ml EPA/DHA-Lys or 1 mg/ml L-rhamnose in SIEM during an intervention period of 72 hrs. Cultivation in SIEM without any additional substance served as control condition. Samples were taken from the lumen and the dialysate every 24 hrs (t0, t24, t48 and t72) to study the metabolic activity of the gut microbiota (SCFA production) and changes in composition of the gut microbiota (16S rRNA gene analysis). Samples were analyzed for SCFA by ion-chromatography. […] The order of Pr/Ac for the 72 h treatments is control (SIEM)<L-rhamnose<EPA/DHA-Lys (ω-3)<L-rhamnose+EPA/DHA-Lys (ω-3).

[3] = cited from earlier work

## NCCC[C@H](N)C(=O)O [Orn, L-ornithine]
[1]
  Propionate/acetate ratio: 0.36
  Acetate, change compared to control: +10.15 mM
  Propionate, change compared to control: +1.74 mM
  n-Butyrate, change compared to control: +0.19 mM

## Inulin
Human fecal microbiota
  n-Butyrate, change compared to control: +0.46 mM
Human fecal microbiota; controls ~8 mM propionate
  Propionate, change compared to control: +0.03 mM
Human fecal microbiota; controls ~40 mM acetate
  Acetate, change compared to control: +5.87 mM

## NCCCC[C@H](N)C(=O)O [Lys, L-lysine]
[1]
  Propionate/acetate ratio: 0.40
  Acetate, change compared to control: +8.81 mM
  Propionate, change compared to control: +2.12 mM
  n-Butyrate, change compared to control: +0.29 mM

## CC(=O)O [acetate]
[2]
  Systemic availability of colonic SCFA: ~36%

## CCCC(=O)O [butyrate]
[2]
  Systemic availability of colonic SCFA: ~2%

## C[C@H](O)[C@H](O)[C@@H](O)[C@@H](O)C=O [rhamnose, L-rhamnose]
Human fecal microbiota 2; 0 h
  Cumulative production of acetate: 0.00 mmol
  Cumulative production of butyrate: 0.00 mmol
  Cumulative production of propionate: 0.00 mmol
Human fecal microbiota 2; 24 h
  Pr/Ac (propionate-to-acetate ratio): 0.57
  Cumulative production of acetate: 25.30 mmol
  Cumulative production of butyrate: 15.69 mmol
  Cumulative production of propionate: 14.30 mmol
Human fecal microbiota 2; 48 h
  Pr/Ac (propionate-to-acetate ratio): 0.56
  Cumulative production of acetate: 56.28 mmol
  Cumulative production of butyrate: 35.02 mmol
  Cumulative production of propionate: 31.64 mmol
Human fecal microbiota 2; 72 h
  Pr/Ac (propionate-to-acetate ratio): 0.56
  Cumulative production of acetate: 81.62 mmol
  Cumulative production of butyrate: 52.10 mmol
  Cumulative production of propionate: 45.41 mmol
Human fecal microbiota 2; microbiota 2, average
  Ratio of SCFA: acetate as percentage of acetate + propionate + butyrate: 45.7%
  Ratio of SCFA: butyrate as percentage of acetate + propionate + butyrate: 29.0%
  Ratio of SCFA: propionate as percentage of acetate + propionate + butyrate: 25.3%
Human fecal microbiota 1; 0 h
  Cumulative production of acetate: 0.00 mmol
  Cumulative production of butyrate: 0.00 mmol
  Cumulative production of propionate: 0.00 mmol
Human fecal microbiota 1; 24 h
  Pr/Ac (propionate-to-acetate ratio): 0.57
  Cumulative production of acetate: 25.30 mmol
  Cumulative production of butyrate: 15.69 mmol
  Cumulative production of propionate: 14.30 mmol
Human fecal microbiota 1; 48 h
  Pr/Ac (propionate-to-acetate ratio): 0.56
  Cumulative production of acetate: 56.28 mmol
  Cumulative production of butyrate: 35.02 mmol
  Cumulative production of propionate: 31.64 mmol
Human fecal microbiota 1; 72 h
  Pr/Ac (propionate-to-acetate ratio): 0.56
  Cumulative production of acetate: 81.62 mmol
  Cumulative production of butyrate: 52.10 mmol
  Cumulative production of propionate: 45.41 mmol
Human fecal microbiota 1; microbiota 1, average
  Ratio of SCFA: acetate as percentage of acetate + propionate + butyrate: 51.1%
  Ratio of SCFA: butyrate as percentage of acetate + propionate + butyrate: 28.1%
  Ratio of SCFA: propionate as percentage of acetate + propionate + butyrate: 20.8%
[3]; acute intake of 25 g L-rhamnose
  Circulating propionate after L-rhamnose: significant increase
[3]; up to 25.5 g L-rhamnose/day for seven days
  Serum propionate after L-rhamnose: no increase

## N=C(N)NCCC[C@H](N)C(=O)O [Arg, L-arginine]
[1]
  Propionate/acetate ratio: 0.40
  Acetate, change compared to control: +8.29 mM
  Propionate, change compared to control: +2.02 mM
  n-Butyrate, change compared to control: +0.71 mM
